Patent publication US6458590B1, “Methods and compositions for treatment of restenosis” (The United States of America, as represented by the …, priority 1997, dated 2002)

How the values were obtained:
[1] = test system: human coronary artery smooth muscle cells (CASMCs); test: Proliferation of CASMCs after lipofection with OPN oligonucleotides ([3H]-thymidine); type: cell-based; conditions: oligonucleotide 1.5 μg/200 μl with LIPOFECTIN 5 μg/200 μl
Method: (§1) CASMCs (Clonetics) were transfected with a “LIPOFECTIN”-oligonucleotide complex according to the manufacturer's (GIBCO-BRL Life Technologies, Inc. Gaithersburg, Md.) specifications. Briefly, 5 μg of “LIPOFECTIN” was mixed with either 1 or 2 μg of antisense oligonucleotide in 200 μl of serum free medium (SFM) (also called basal medium) and incubated at room temperature for 15 min. Cells (1×10^5 cells/well, 12-well plate) during log phase of growth were washed with SFM and 1 ml of SFM containing Lipofectin with different amounts of antisense S-oligonucleotides was added to each well and mixed by gentle agitation. The cells were incubated further with the same medium at 37° C. for 12 h. Additional control cells which received either SFM, or SFM which contained “LIPOFECTIN” alone, were also included. […] The SFM medium containing “LIPOFECTIN”-oligonucleotide complex was removed, and the cells incubated for an additional 48 h in regular medium. At the end of this incubation period, the cells were ready for the determination of a dose response on OPN expression as measured by Western blotting.
The effect of antisense ASHOPN-P1 on the proliferation of human coronary artery smooth muscle cells (CASMCs) was determined as described supra. […] The acid precipitable radioactivity was measured using a scintillation beta counter (Beckman).

OPN [2] = test: OPN expression in lipofected CASMCs (immunoprecipitation, Western blot); type: cell-based, human
Method: as §1
The effect of antisense OPN sequences on OPN expression was determined by Western blot analysis as described above. […]

OPN [3] = test: OPN production in PMA-stimulated CASMCs (immunoprecipitation, Western blotting); type: cell-based, human; conditions: 250 nM PMA, 37° C., 24 h
Method: An in vitro assay was used in order to determine whether an increase in OPN gene expression is detectable. Since phorbol myristate acetate (PMA) is known to induce OPN gene expression, CASMCs were stimulated with PMA, and OPN production was detected by immunoprecipitation of cell lysates followed by Western blotting.
CASMCs were incubated with Phorbol 12-myristate 13-acetate (PMA) (250 nM) at 37° C. for 24 h. The cells were immunoprecipitated using a kit according to manufacturer's (Boehringer Mannheim) instructions. Briefly, the cells were lysed with lysis buffer, centrifuged and the supernatant incubated with rabbit OPN-antibody for 1 h then with protein A-agarose at 4° C. overnight. Bound complexes were pelleted by centrifugation, washed and electrophoresed. Western blot analysis was done as described, supra.

CASMCs = test: CASMC proliferation assay ([3H]thymidine); type: cell-based, human
Method: CASMCs were cultured as described above and the cells were starved in serum free media for 48 h. The proliferation assays were performed as described previously (Monfardini et al., (1995) J. Biol. Chem. 270:6628-6638). Briefly, the cells were incubated in the absence or presence of PDGF-AB (100 ng/ml) (Upstate Biotechnology, Lake Placid, N.Y.) and increasing concentrations of OPN (1.0-6.0 μg/ml) at 37° C. for 24 h. In separate experiments, cells were pre-treated with either mouse anti human αvβ3-antibody (5 μg/ml), preimmune IgG or GRGDS peptide (10 nM) followed by OPN (3.0 μg/ml). After 4 h, [3H]thymidine (1 μCi/ml) was added and the cells were maintained in culture for an additional 24 h under the same culture conditions as described previously. After removing the supernatants, the cells were washed with basal medium and lysed in 50% TCA. The acid precipitable cell-bound radioactivity was measured using a scintillation counter (Beckman).

human CASMC = test: CASMC migration assay (Transwell); type: cell-based; conditions: OPN 0.68 or 1.36 μg/ml as chemoattractant, 24 h
Method: Migration of CASMC was performed using Transwell cell culture chambers with an […] pore size polycarbonate membrane (Costar) as described previously (Yue et al., (1994) Exptl. Cell Res. 214:459-464). Briefly, sub-confluent human CASMC were trypsinized, centrifuged and resuspended in basal medium (SmBM) supplemented with 0.2% BSA. This was followed by the addition of 0.25 ml of cell suspension (5×10^4 cells) to the upper compartnent of the chamber. The lower compartment contained 0.5 ml of basal medium supplemented with 0.2% BSA together with 0.68 μg/ml OPN, 1.36 μg/ml OPN, or buffer alone. After incubation at 37° C. for 24 h., the non-migrated cells on the upper surface of the filters were scraped and washed. The migrated cells were fixed in methanol, stained with Giemsa stain, counted under an inverted microscope and photomicrographed (120×) using a Zeiss photomicroscope (Axiovert 405 M). In separate experiments, cells in the upper compartment were also treated with monoclonal mouse anti-human αvβ3-antibody (Chemicon) (10 μg/ml) before being assayed for migration in order to ascertain whether this OPN-stimulated migration is mediated via αvβ3. Preimmune IgG treatment served as a non-specific control.

CASMC = test: ECM-invasion assay (matrigel-coated invasion chamber); type: cell-based, human; conditions: OPN 0.5-2.0 μg/ml, 24 h
Method: The ECM-invasion assay was performed using a commercially available 24-well matrigel-coated invasion chamber (Collaborative Research) as described previously (Kundu et al., (1996) Proc. Natl. Acad. Sci. (USA) 93:2915-2919). Briefly, the confluent CASMC were trypsinized, centrifuged, and resuspended in basal medium supplemented with 0.1% BSA. The lower compartment of the invasion chamber was filled with fibroblast-conditioned medium (FCM) which served as a chemoattractant. The invasion assays were initiated by inoculating the upper chamber with cells (1×10^5/well) which were either untreated or treated with varying concentrations of OPN (0.5-2.0 μg/ml). After incubating at 37° C. for 24 h, the cells in the upper chamber were discarded, the matrigel was scraped clear and the cells which had invaded the matrigel and migrated to the lower surface of the filter, were fixed, stained, counted and photomicrographed (120×) as described above. The cells were also pre-treated with mouse anti-human αvβ3 antibody (Chemicon) (10 μg/ml) as described above to determine if the OPN-induced invasion was mediated via αvβ3. Preimmune IgG was used as a non-specific control.

Molecule: 5′-AATCACTGCAATTCTCATGG-3′ (all phosphorothioate, sugars by position and methylation of C not given here; listed as Homo sapiens) [ASHOPN-P1]
- inhibition of cell proliferation as compared to cells treated with LIPOFECTIN alone [1]: 82%
- expression of OPN by CASMCs (OPN [2]; 1 or 2 μg S-oligonucleotide with LIPOFECTIN, versus LIPOFECTIN-treated or sense-treated cells): capable of inhibiting expression of OPN
- specificity of the antisense effect (OPN [2]; compared with OPN sense-treated cells): specific

Molecule: CCCCCCCCCCCCCC(=O)O[C@@H]1[C@@H](C)[C@@]2(O)[C@@H](C=C(CO)C[C@]3(O)C(=O)C(C)=C[C@@H]23)[C@@H]2C(C)(C)[C@]12OC(C)=O [PMA, Phorbol 12-myristate 13-acetate]
- level of OPN protein in stimulated cells versus unstimulated cells (OPN [3]): markedly higher

Molecule: 5′CCATGAGAATTGCAGTGATT-3′ (all phosphorothioate, sugars by position and methylation of C not given here; listed as Homo sapiens) [SHOPN, reference compound]
- inhibition of cell proliferation as compared to cells treated with LIPOFECTIN alone [1]: about 50%

Molecule: Gly-Arg-Gly-Asp-Ser (GRGDS) [reference compound]
- effect on OPN-induced proliferation (CASMCs; pre-treatment: αvβ3-antibody 5 μg/ml or GRGDS 10 nM, then OPN 3.0 μg/ml): drastically inhibited

Molecule: osteopontin [OPN]
- rate of migration of CASMCs (human CASMC): enhanced with increasing concentrations
- invasiveness of CASMCs on MATRIGEL (CASMC): enhanced their invasiveness
- CASMC proliferation (CASMCs; OPN 1.0-6.0 μg/ml): stimulated their proliferation in a dose-dependent manner
- CASMC proliferation, OPN in conjunction with PDGF-AB (CASMCs; with 100 ng/ml of PDGF-AB): dramatic dose-dependent effect
- CASMC proliferation, OPN alone (CASMCs; without PDGF-AB): modest proliferative response

Molecule: platelet-derived growth factor-AB [PDGF-AB, reference compound]
- CASMC proliferation, PDGF-AB alone (CASMCs; PDGF-AB 100 ng/ml, without OPN): virtually no effect
